We go through 1 compound from paper PMC4661928, “Production of Two Novel Methoxy-Isoflavones from Biotransformation of 8-Hydroxydaidzein by Recombinant Escherichia coli Expressing O-Methyltransferase SpOMT2884 from Streptomyces peucetius” (International Journal of Molecular Sciences, 2015).

The target in this experiment is T1, SpOMT2884 (Streptomyces peucetius, UniProt T1WTM5).
T1 construct: gene OMT2884; codon-optimised synthetic gene in pETDuet-1 (NdeI/XhoI), expressed in E. coli BL21(DE3); whole-cell biotransformation, not purified
T1 sequence (T1WTM5 1-223): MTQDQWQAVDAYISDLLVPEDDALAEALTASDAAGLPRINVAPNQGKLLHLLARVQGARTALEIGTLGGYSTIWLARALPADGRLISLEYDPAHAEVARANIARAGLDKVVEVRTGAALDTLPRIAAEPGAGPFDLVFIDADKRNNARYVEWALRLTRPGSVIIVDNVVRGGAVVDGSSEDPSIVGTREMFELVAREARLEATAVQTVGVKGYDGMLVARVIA
Briefly: whole-cell biotransformation, UPLC; products by MS and NMR. It is filed as cell-based. The settings on record: recombinant E. coli BL21(DE3), 0.1 mM substrate, 37 °C, endogenous SAM; 7-O- and 8-O-methylation.

On to `O=c1c(-c2ccc(O)cc2)coc2c(O)c(O)ccc12` [8-hydroxydaidzein], for which the “whole-cell biotransformation, UPLC; products by MS and NMR” value is on record as “SpOMT2884 catalyzes either 7-O-methylation or 8-O-methylation in 8-hydroxydaidzein”.
